Earlier results in article PMC2151269, “Broad phase II and pharmacokinetic study of methoxy-morpholino doxorubicin (FCE 23762-MMRDX) in non-small-cell lung cancer, renal cancer and other solid tumour patients” (British Journal of Cancer, 1998).

Set-up: method as in Tidefelt et al, 1989
Conditions: 0-48 h after simultaneous infusion of 20 mg of epirubicin and 20 mg of doxorubicin; ref Tidefelt et al, 1989; cited from earlier work

Row | SMILES | Peak cellular concentrations relative to plasma concentrations
1 | COc1cccc2c1C(=O)c1c(O)c3c(c(O)c1C2=O)C[C@@](O)(C(=O)CO)C[C@@H]3O[C@H]1C[C@H](N)[C@H](O)[C@H](C)O1 [doxorubicin] | around 200 times
2 | COc1cccc2c1C(=O)c1c(O)c3c(c(O)c1C2=O)C[C@@](O)(C(=O)CO)C[C@@H]3O[C@H]1C[C@H](N)[C@@H](O)[C@H](C)O1 [epirubicin] | around 200 times
